# From patent US20190119282A1, “IMIDAZOPYRIDAZINES USEFUL AS INHIBITORS OF THE PAR-2 SIGNALING PATHWAY” (Vertex Pharmaceuticals Incorporated, priority 2013, published 2019)
# Legend:
# [1] = target: T1, PAR2 (HT-29 cells, SLIGKV activation) (Homo sapiens, UniProt P55085); assay: Ca FLIPR TETRA assay, ANTAGONIST mode, stimulation with 8 μM SLIGKV; format: cell-based; settings: HT-29 cells, stimulation with 8 μM SLIGKV
# T1 construct: host or cells: HT-29 cells
# T1 sequence (P55085 26-397): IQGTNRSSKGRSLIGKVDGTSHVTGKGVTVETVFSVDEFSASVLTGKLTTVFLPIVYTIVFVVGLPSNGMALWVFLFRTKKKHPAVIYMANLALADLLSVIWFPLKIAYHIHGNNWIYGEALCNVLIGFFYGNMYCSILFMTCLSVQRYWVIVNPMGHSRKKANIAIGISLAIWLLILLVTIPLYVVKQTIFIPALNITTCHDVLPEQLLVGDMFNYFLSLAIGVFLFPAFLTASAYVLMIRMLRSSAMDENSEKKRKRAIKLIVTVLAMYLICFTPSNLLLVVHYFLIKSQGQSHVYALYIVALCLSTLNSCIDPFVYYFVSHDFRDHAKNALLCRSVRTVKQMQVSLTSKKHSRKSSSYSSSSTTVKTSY
# Protocol: (§1) Example 60: Protocol for Testing PAR2 Compounds in ANTAGONIST Mode Using the Ca FLIPR^TETRA Assay (384 Well)
# (§2) 23000 HT-29 cells (ATCC# HTB-38) were plated in 384-well black, transparent-flat bottom plates and incubated in 25 uL of 1% FBS/McCoy's media ON at 37° C. under an atmosphere of 5% CO2. The following day, 25 uL FLIPR calcium 5 Molecular Devices assay reagent (Cat: R-8186) was added. Plates were incubated at 37° C. and r. t. for 45 min and 15 min, respectively. Compounds dilutions were prepared in 100% DMSO using a Biomek FX and diluted 20-fold in HBSS and then 5.5 uL was added directly to the cells by the FLIPR^TETRA (10× dilution) using FLIPR Tetra Pipette tips, black, non-sterile, 384 Molecular Devices (Cat: 9000-0764).
# (§3) A first read was performed to determine whether the test compounds on their own can activate Ca2+ responses.
# (§4) The cells were incubated with the compounds for 30 min at r. t. and then read in ANTAGONIST mode in the same plate by stimulating with 6.2 uL of a fixed concentration of the activator: final concentrations: 8 μM SLIGKV, 1 U/mL Thrombin, 3.1 U/mL trypsin, or 0.6 μM UTP.
# [2] = target: T2, PAR2 (HT-29 cells, trypsin activation) (Homo sapiens, UniProt P55085); assay: Ca FLIPR TETRA assay, ANTAGONIST mode, stimulation with 3.1 U/mL trypsin; format: cell-based; settings: HT-29 cells, stimulation with 3.1 U/mL trypsin
# T2 construct: host or cells: HT-29 cells
# T2 sequence (P55085 26-397): T1 sequence (P55085 26-397)
# Protocol: as §1, §2, §3, §4
# [3] = system: Thrombin-stimulated Ca2+ response in HT-29 cells; assay: Ca FLIPR TETRA assay, ANTAGONIST mode, stimulation with 1 U/mL Thrombin; format: cell-based, human; settings: Homo sapiens; HT-29 cells, stimulation with 1 U/mL Thrombin
# Protocol: as §1, §2, §3, §4
# [4] = system: UTP-stimulated Ca2+ response in HT-29 cells; assay: Ca FLIPR TETRA assay, ANTAGONIST mode, stimulation with 0.6 μM UTP; format: cell-based, human; settings: Homo sapiens; HT-29 cells, stimulation with 0.6 μM UTP
# Protocol: as §1, §2, §3, §4
Compound,IC50 [1],IC50 [2],IC50 [3],IC50 [4]
"CC(C)C(O)C(=O)N1CCN(C(=O)c2cn3nc(-c4ccc(F)cc4)cc(C4CC4)c3n2)C(C)(C)C1 (stereo not drawn) [Compound I-22, 1-[4-[8-cyclopropyl-6-(4-fluorophenyl)imidazo[1,2-b]pyridazine-2-carbonyl]-3,3-dimethyl-piperazin-1-yl]-2-hydroxy-3-methyl-butan-1-one]",0.007 µM,0.014 µM,21 µM,25 µM
"CC(C)c1cc(-c2ccc(F)cc2)nn2cc(C(=O)N3CCN(C(=O)OC(C)(C)C)CC34COC4)nc12 [Compound I-23, tert-butyl 5-[6-(4-fluorophenyl)-8-isopropyl-imidazo[1,2-b]pyridazine-2-carbonyl]-2-oxa-5,8-diazaspiro[3.5]nonane-8-carboxylate]",0.13 µM,0.3 µM,> 50 µM,> 50 µM
"CC(C)c1cc(-c2ccc(F)cc2)nn2cc(C(=O)N3CCC4(CC3)CNC(=O)O4)nc12 [Compound I-24, 8-[6-(4-fluorophenyl)-8-isopropyl-imidazo[1,2-b]pyridazine-2-carbonyl]-1-oxa-3,8-diazaspiro[4.5]decan-2-one]",0.22 µM,0.59 µM,> 50 µM,> 50 µM
"CC(C)c1cc(-c2ccc(F)cc2)nn2cc(C(=O)N3CCNC(=O)C3(C)C)nc12 [Compound I-25, 4-[6-(4-fluorophenyl)-8-isopropyl-imidazo[1,2-b]pyridazine-2-carbonyl]-3,3-dimethyl-piperazin-2-one]",0.009 µM,0.021 µM,> 50 µM,> 50 µM
"CC(C)c1cc(-c2ccc(F)cc2)nn2cc(C(=O)N3CCN(C(=O)C4(O)CCOCC4)CC34COC4)nc12 [Compound I-26, [6-(4-fluorophenyl)-8-isopropyl-imidazo[1,2-b]pyridazin-2-yl]-[8-(4-hydroxytetrahydropyran-4-carbonyl)-2-oxa-5,8-diazaspiro[3.5]nonan-5-yl]methanone]",4.4 µM,9.1 µM,28 µM,31 µM
"CC(C)c1cc(-c2ccc(F)cc2)nn2cc(C(=O)N3CCN(C(=O)C4(O)CCC4)C[C@@H]3C)nc12 [Compound I-28, [6-(4-fluorophenyl)-8-isopropyl-imidazo[1,2-b]pyridazin-2-yl]-[(2S)-4-(1-hydroxycyclobutanecarbonyl)-2-methyl-piperazin-1-yl]methanone]",8.8 µM,15 µM,33 µM,38 µM
"CC1(c2cc(-c3ccc(F)cc3)nn3cc(C(=O)N4CCNC(=O)C4(C)C)nc23)CC1 [Compound I-30, 4-[6-(4-fluorophenyl)-8-(1-methylcyclopropyl)imidazo[1,2-b]pyridazine-2-carbonyl]-3,3-dimethyl-piperazin-2-one]",0.002 µM,0.003 µM,25 µM,26 µM
"CC1(c2cc(-c3ccc(F)cc3)nn3cc(C(=O)N4CCN(C(=O)C5(O)CCOCC5)CC4(C)C)nc23)CC1 [Compound I-31, [6-(4-fluorophenyl)-8-(1-methylcyclopropyl)imidazo[1,2-b]pyridazin-2-yl]-[4-(4-hydroxytetrahydropyran-4-carbonyl)-2,2-dimethyl-piperazin-1-yl]methanone]",0.031 µM,0.042 µM,19 µM,24 µM
"CC1(c2cc(-c3ccc(F)cc3)nn3cc(C(=O)N4CCN(C(=O)C5(O)CCC5)CC4(C)C)nc23)CC1 [Compound I-33, [6-(4-fluorophenyl)-8-(1-methylcyclopropyl)imidazo[1,2-b]pyridazin-2-yl]-[4-(1-hydroxycyclobutanecarbonyl)-2,2-dimethyl-piperazin-1-yl]methanone]",0.045 µM,0.014 µM,> 50 µM,> 50 µM
